Data set [1] relates to ventricular arhythmias caused by aconitine. Put plainly: antiarhythmic activity, aconitine test in rats. To be noted: Rattus norvegicus, iv, read-out: ED50 (i.v.). It counts as in vivo. The procedure: The principle of the technique rests on the induction time of ventricular arhythmias caused by aconitine which is slowly perfused in rats. An antiarhythmic substance retards the occurrence of arhythmias and this delay is proportional to the activity of the molecule.
Groups of five male rats are used. An individual anaesthesia is realized (10% urethane: 1 g/kg/ip) to allow a catheterization of the vein of the penis. The electrocardiogram is recorded. At time T=0 the substance investigated is injected in the form of an aqueous solution, at a rate of 2.5 ml of solution per kg in 30 seconds. At time T=90 seconds, that is 1 minute after the end of the injection, aconitine is perfused at a rate of 20 μg per minute until the appearance of supra-ventricular systoles. The time of perfusion of the aconitine is noted.
The results are expressed by an ED50, which is the dose in mg/kg increasing by 50% the perfusion time of aconitine in comparison with the perfusion time of aconitine for the control animals.

The test system of data set [2] is uptake of serotonin (5-hydroxytryptamine, 5HT). Put plainly: inhibition test of the uptake of serotonin by synaptosomes of the rat brain (medulla + pons). It is filed as biochemical. To be noted: read-out: I50 5HT (medulla + pons).
Description: (§1) The results are expressed by a 50% inhibitory dose (I50) which represents the dose of product, in micromoles per liter, diminishing by 50% the uptake of the neuromediator considered in the specific regions (hypothalamus, medulla+pons) where the corresponding neurons predominate.
Data set [3] relates to uptake of noradrenaline (NA). Put plainly: inhibition test of the uptake of noradrenaline by synaptosomes of the rat brain (hypothalamus). It counts as biochemical. To be noted: read-out: I50 NA (hypothalamus).
Description: as §1
The target in data set [4] is receptors for benzodiazepines in the brain membranes (3H-diazepam binding site). The experiment in a line: displacement of 3H-diazepam from its binding sites (method of H. Mohler et al.). Set-up: species or system rat. The text has this:
The anxiolytic activity of the benzodiazepines is well known. The presence of specific receptors for benzodiazepines in the brain membranes of the rat has also been well established (Squires et al. Nature 266, 732, (1977)) and a good correlation exists between the degree of affinity of benzodiazepines for the receiving binding sites and the pharmacodynamic effects observed in the animal and in man.
The results of Table II have been obtained by testing the products according to the method of H. Mohler et al., Life Sciences 20, 2101 (1977).
For orientation: Loss of bound radioactivity is the signal in a displacement assay; it reports binding, not function.

A short description of data set [5]: acute toxicity in the mouse per os. Further details: species or system Charles River). To be noted: in vivo, po, male CD1 mouse, 3 days of observation. From the text:
The acute toxicities of the compounds of formula (I) have been determined on the male mouse CD1 (Charles River) per os. The LD50 have been calculated, after 3 days of observation, by the cumulative method of J. J. Reed and H. Muench (Amer. J. Hyg. 27, 493, (1938)).

Where [6] appears, read: calculated from I50, read-out: Ki.

Where two headings read alike, the source gives them in different places.

Consider `C=C[C@H]1C[N@@]2CC[C@H]1C[C@@H]2[C@@H](O)c1ccnc2ccc(OC)cc12` [Quinidine, reference compound], for which, in data set [1], the median effective dose (ED50) stood at 4 mg/kg.

Regarding `Cc1ccc(CCCC2CCNCC2)cc1` [Example 10, 4-[3-(4-Methylphenyl)1-propyl]piperidine], the IC50 in data set [2] was 160 nM; in data set [3], 300 nM. Moreover, the inhibition constant (Ki) in data set [4] (setting [6]) is 42000 nM. Also, the LD50 at 72 h in data set [5] was found to be 400 mg/kg.

Take `COc1ccc(C(=O)CCC2CCNCC2)cc1` [Example 19, 1-(4-methoxyphenyl) 3-(4-piperidyl) 1-propanone]: in data set [4] (setting [6]), the Ki is 6500 nM. In data set [5], this compound had an LD50 at 72 h of 200 mg/kg.

In the case of `Oc1ccccc1CCCC1CCNCC1` [Example 20, 2-[3-(4-Piperidyl)propyl]phenol], the ED50 in data set [1] was 1.2 mg/kg. Further, the Ki in data set [4] (setting [6]) was 29000 nM.

With `Clc1ccc(CCCC2CCNCC2)cc1Cl` [Example 9, 4-[3-(3,4-dichlorophenyl)1-propyl]piperidine], the IC50 in data set [2] stood at 180 nM; in data set [3] it was 1300 nM. In data set [5], this compound returned an LD50 at 72 h of 600 mg/kg.

Consider `Fc1ccc(CCCC2CCNCC2)cc1` [Example 7, 4-[3-(4-Fluorophenyl)1-propyl]piperidine], for which the results for the IC50 in data set [2] and in data set [3] were 10 nM and 3000 nM, respectively. Also, the inhibition constant Ki in data set [4] (setting [6]) is 45000 nM. The LD50 at 72 h in data set [5] turned out to be 225 mg/kg.

For `Clc1ccc(CCCC2CCNCC2)cc1` [Example 8, 4-[3-(4-Chlorophenyl)1-propyl]piperidine], the IC50 in data set [2] came to 90 nM; in data set [3], 900 nM. The Ki in data set [4] (setting [6]) was 36000 nM. The compound also returned a median lethal dose (LD50) at 72 h in data set [5] of 235 mg/kg.

As for `Nc1ccc(CCCC2CCNCC2)cc1` [Example 17, 4-[3-(4-Aminophenyl)propyl]piperidine], the Ki in data set [4] (setting [6]) is 36000 nM.

`COc1ccc(C(O)CCC2CCNCC2)cc1` (stereo not shown) [Example 22, 1-(4-methoxyphenyl) 3-(4-piperidyl) 1-propanol]: the Ki in data set [4] (setting [6]) was 32000 nM. The compound also showed an LD50 at 72 h in data set [5] of 800 mg/kg.

With `c1ccc(CCCC2CCNCC2)cc1` [Example 16, 4-[3-(phenyl)propyl]piperidine], the ED50 in data set [1] worked out at 2.5 mg/kg. In addition, the IC50 in data set [2] was 2 nM; in data set [3], 240 nM. The same compound came in with an LD50 at 72 h in data set [5] of 200 mg/kg.

For `COc1ccc(CCCC2CCNCC2)cc1` [Example 6, 4-[3-(4-Methoxyphenyl) 1-propyl]piperidine], the results for the IC50 in data set [2] and in data set [3] were 20 nM and 2200 nM, respectively. In addition, the inhibition constant Ki in data set [4] (setting [6]) was 19500 nM. Moreover, in data set [5], the LD50 at 72 h is 400 mg/kg.

As for `CN(C)CCCN1c2ccccc2CCc2ccccc21` [Imipramine, reference compound], the IC50 in data set [2] worked out at 120 nM; in data set [3] it was 500 nM. Further, the Ki result in data set [4] (calculated from I50) is “inactive”.

For orientation: ED50 means the midpoint of the dose-response relation. As usually defined, the Ki is a dissociation constant, usually derived from enzyme kinetics or from competition with a known ligand. What is called LD50 is the dose expected to kill half of the subjects tested. A higher LD50 goes with lower toxicity.
